What was measured:
MEFs = assay: Toxicity to MEFs; type: cell-based, mouse
GCV-resistant HCMV Towne = assay: Plaque reduction assay, GCV-resistant HCMV Towne in HFFs; type: cell-based, human cytomegalovirus; details: Human betaherpesvirus 5, read-out: EC50—GCVR Towne (μM)
HCMV = assay: Drug combination of GCV and 2955 by plaque assay, Bliss model; type: cell-based, human cytomegalovirus; details: Human betaherpesvirus 5; combination experiment with GCV, plaque assay; read-out: EC50 (μM) of Compound 2
Procedure: Drug combination and analysis: These experiments were performed as previously reported^40. The combination of GCV and each compound was tested using the pp28-luciferase. Briefly, 2×10^6 HFFs/plate were seeded in 96-well plates and infected with the pp28-luciferase Towne HCMV strain (MOI=1). First, a dose response curve was generated for each drug individually to determine its EC50. Then, drugs were combined at twice their EC50, diluted in DMEM with 4% FBS, followed by serial dilution and added together after infection. Luciferase activity of the combination and each drug individually was quantified at 72 hpi. The combination of letermovir and each of the new compounds was tested by the plaque assay using TB40. The same principle applied in this assay for the drug combination effect, and plaques were counted at 8 dpi. The Bliss model was used to calculate the effect of each drug combination on pp28-luciferase activity and plaque reduction. […]
Pattern of drug combination with GCV and letermovir: The effect of each compound alone or in combination with GCV or letermovir was tested in HCMV-infected HFFs. […] For letermovir and its combination with each of the five compounds the EC50 was determined based on plaque assay. […] All other combinations and Bliss coefficients were measured by pp28- luciferase.

HSV2 clinical isolate = assay: Plaque reduction assay, HSV2 in Vero cells; type: cell-based, Human Herpesvirus 2; details: plaque reduction
Description: Viruses and antiviral assays: A recombinant pp28-luciferase Towne HCMV strain expressing luciferase under the control of the UL99 (pp28) late promoter was reported to provide a highly-sensitive and reproducible reporter for drug screening^20. A GCV-resistant HCMV pp28-luciferase that contains a C607Y mutation in UL97 was reported^37. The HCMV TB40 strain was obtained from ATCC (VR-1578). Clinical isolates of Human Herpesvirus 1 and 2 (HSV1, HSV2) were collected from the Johns Hopkins Microbiology laboratory without identifiers that could link them to a specific patient. Mouse CMV (MCMV) Smith strain (ATCC VR-1399) was used for infection of MEFs.
Plaque reduction assay: HFFs were seeded into 12-well plates (2×10^5 cells/well) and infected with HCMV TB40 at approximately 100 plaques/well. After 90 min, media were aspirated, and DMEM containing 0.5% carboxymethyl-cellulose (CMC), 4% fetal bovine serum (FBS), and drugs were added into duplicate wells. Following incubation at 37° C. for 10-12 days the overlay was removed, and plaques were counted after crystal violet staining. For HSV1 and HSV2 replication in Vero cells, the adsorption time was 60 min and plaques were counted after 36 h. Plaque assays in MEFs were completed after 3 days.
Inhibition of other herpesviruses: Inhibition of herpes simplex 1 and 2 (HSV1, HSV2), Epstein Barr virus (EBV) and mouse CMV (MCMV) was tested with the five compounds. Plaque reductions assays were used for HSV1, HSV2 and MCMV. Inhibition of lytic EBV replication was measured by real-time PCR in AKATA cells following IgG induction. Only MLS8554 was active against HSV1, HSV2 and MCMV (Table 2).

## CC(C)NC(=O)C1CCN(C(=O)c2cc3sccc3n2Cc2ccc(Cl)cc2)CC1 [NCGC2955, 1-(4-(4-chlorobenzyl)-4H-thieno[3,2-b]pyrrole-5-carbonyl)-N-isopropylpiperidine-4-carboxamide]
MEFs
  concentration at which toxicity to MEFs was observed: ≥ 10 µM
GCV-resistant HCMV Towne
  EC50: 1.4 ± 0.2 µM
HCMV
  EC50: 1.51 ± 0.03 µM

## CCc1ccc(NC(=O)[C@H](Cc2c[nH]c3ccccc23)NC(=O)[C@@H]2Cc3ccccc3CN2)cc1 [MLS8554]
HSV2 clinical isolate
  activity against HSV2, in words: active
HSV2 clinical isolate; Vero cells, NA = Not active, read-out: EC50—HSV2-C1
  EC50: 1.3 ± 0.1 µM

Reference: US12691114B2, “Compositions for inhibition of herpesviruses” (The Medical College of Wisconsin, Inc., priority 2020, dated 2026)
